In patent US12077503B2, “Substituted cyclic amides and their use as herbicides” (FMC CORPORATION, priority 2015, dated 2024):
Read-outs that look alike come from different tables or passages of the source.

Legend:
Test in all cases: Test A preemergence
Type in all cases: in vivo
[1] = test system: barnyardgrass (Echinochloa crus-galli); conditions: Echinochloa crus-galli, pre-emergence, 240 h; for pest or weed control at 125 g/ha: 125 g ai/ha; for pest or weed control at 500 g/ha: 500 g ai/ha
Method in brief: (§1)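 Seeds sprayed preemergence with a directed soil spray, or plants at 2 to 10 cm height and one- to two-leaf stage sprayed postemergence, with test chemicals in a non-phytotoxic solvent mixture containing surfactant, in loam soil–sand blend. Injury rated visually against untreated controls after about 10 d in greenhouse, 0 (no effect) to 100 (complete control).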

[2] = test system: ragweed (common ragweed, Ambrosia elatior); conditions: Ambrosia artemisiifolia, pre-emergence, 240 h; for pest or weed control at 125 g/ha: 125 g ai/ha; for pest or weed control at 500 g/ha: 500 g ai/ha
Method in brief: as §1

[3] = test system: giant foxtail (Setaria faberii); conditions: Setaria faberi, pre-emergence, 240 h; for pest or weed control at 125 g/ha: 125 g ai/ha; for pest or weed control at 500 g/ha: 500 g ai/ha
Method in brief: as §1

[4] = test system: Kochia (Kochia scoparia); conditions: Bassia scoparia, pre-emergence, 240 h; for pest or weed control at 125 g/ha: 125 g ai/ha; for pest or weed control at 500 g/ha: 500 g ai/ha
Method in brief: as §1

[5] = test system: pigweed (Amaranthus retroflexus); conditions: Amaranthus retroflexus, pre-emergence, 240 h; for pest or weed control at 125 g/ha: 125 g ai/ha; for pest or weed control at 500 g/ha: 500 g ai/ha
[6] = test system: ryegrass, Italian (Italian ryegrass, Lolium multiflorum); conditions: Lolium multiflorum, pre-emergence, 240 h; for pest or weed control at 125 g/ha: 125 g ai/ha; for pest or weed control at 500 g/ha: 500 g ai/ha
Method in brief: as §1

[7] = preemergence, visual rating after approx. 10 d, 0 to 100 scale where 0 is no effect and 100 is complete control, read-out: Plant response rating, Barnyardgrass
[8] = preemergence, visual rating after approx. 10 d, 0 to 100 scale where 0 is no effect and 100 is complete control, read-out: Plant response rating, Ragweed
[9] = preemergence, visual rating after approx. 10 d, 0 to 100 scale where 0 is no effect and 100 is complete control, read-out: Plant response rating, Foxtail, Giant
[10] = preemergence, visual rating after approx. 10 d, 0 to 100 scale where 0 is no effect and 100 is complete control, read-out: Plant response rating, Kochia
[11] = preemergence, visual rating after approx. 10 d, 0 to 100 scale where 0 is no effect and 100 is complete control, read-out: Plant response rating, Pigweed
[12] = preemergence, visual rating after approx. 10 d, 0 to 100 scale where 0 is no effect and 100 is complete control, read-out: Plant response rating, Ryegrass, Italian
[13] = preemergence, 0 to 100 scale, 0 = no effect, 100 = complete control, read-out: Plant response rating, Barnyardgrass
[14] = preemergence, 0 to 100 scale, 0 = no effect, 100 = complete control, read-out: Plant response rating, Ragweed
[15] = preemergence, 0 to 100 scale, 0 = no effect, 100 = complete control, read-out: Plant response rating, Foxtail, Giant
[16] = preemergence, 0 to 100 scale, 0 = no effect, 100 = complete control, read-out: Plant response rating, Kochia
[17] = preemergence, 0 to 100 scale, 0 = no effect, 100 = complete control, read-out: Plant response rating, Pigweed
[18] = preemergence, 0 to 100 scale, 0 = no effect, 100 = complete control, read-out: Plant response rating, Ryegrass, Italian

CN1C[C@H](c2cccc([N+](=O)[O-])c2)[C@@H](C(=O)Nc2cccc(F)c2F)C1=O (racemic) [Compound 776]
pest or weed control at 125 g/ha [1, 7]: 90%
pest or weed control at 500 g/ha ([1]; Preemergence, visual injury vs untreated controls after approximately 10 d, read-out: Barnyardgrass plant response rating (0 to 100 scale where 0 is no effect and 100 is complete control)): 90%
pest or weed control at 125 g/ha [2, 8]: 30%
pest or weed control at 500 g/ha ([2]; Preemergence, visual injury vs untreated controls after approximately 10 d, read-out: Ragweed plant response rating (0 to 100 scale where 0 is no effect and 100 is complete control)): 80%
pest or weed control at 125 g/ha [3, 9]: 90%
pest or weed control at 500 g/ha ([3]; Preemergence, visual injury vs untreated controls after approximately 10 d, read-out: Foxtail, Giant plant response rating (0 to 100 scale where 0 is no effect and 100 is complete control)): 100%
pest or weed control at 125 g/ha [4, 10]: 50%
pest or weed control at 500 g/ha ([4]; Preemergence, visual injury vs untreated controls after approximately 10 d, read-out: Kochia plant response rating (0 to 100 scale where 0 is no effect and 100 is complete control)): 60%
pest or weed control at 125 g/ha [5, 11]: 30%
pest or weed control at 500 g/ha ([5]; Preemergence, visual injury vs untreated controls after approximately 10 d, read-out: Pigweed plant response rating (0 to 100 scale where 0 is no effect and 100 is complete control)): 60%
pest or weed control at 125 g/ha [6, 12]: 20%
pest or weed control at 500 g/ha ([6]; Preemergence, visual injury vs untreated controls after approximately 10 d, read-out: Ryegrass, Italian plant response rating (0 to 100 scale where 0 is no effect and 100 is complete control)): 50%

C=CN1C[C@H](c2ccc(C)c(F)c2)[C@@H](C(=O)Nc2cccc(F)c2F)C1=O (racemic) [Compound 1332]
pest or weed control at 500 g/ha ([1]; preemergence, 0 to 100 scale (0 no effect, 100 complete control), read-out: Plant response rating, Barnyardgrass): 90%
pest or weed control at 125 g/ha ([1]; Preemergence, 0 to 100 scale (0 no effect, 100 complete control), read-out: Plant response rating, Barnyardgrass): 70%
pest or weed control at 500 g/ha ([2]; preemergence, 0 to 100 scale (0 no effect, 100 complete control), read-out: Plant response rating, Ragweed): 0%
pest or weed control at 125 g/ha ([2]; Preemergence, 0 to 100 scale (0 no effect, 100 complete control), read-out: Plant response rating, Ragweed): 0%
pest or weed control at 500 g/ha ([3]; preemergence, 0 to 100 scale (0 no effect, 100 complete control), read-out: Plant response rating, Foxtail, Giant): 90%
pest or weed control at 125 g/ha ([3]; Preemergence, 0 to 100 scale (0 no effect, 100 complete control), read-out: Plant response rating, Foxtail, Giant): 80%
pest or weed control at 500 g/ha ([4]; preemergence, 0 to 100 scale (0 no effect, 100 complete control), read-out: Plant response rating, Kochia): 0%
pest or weed control at 125 g/ha ([4]; Preemergence, 0 to 100 scale (0 no effect, 100 complete control), read-out: Plant response rating, Kochia): 0%
pest or weed control at 500 g/ha ([5]; preemergence, 0 to 100 scale (0 no effect, 100 complete control), read-out: Plant response rating, Pigweed): 0%
pest or weed control at 125 g/ha ([5]; Preemergence, 0 to 100 scale (0 no effect, 100 complete control), read-out: Plant response rating, Pigweed): 0%
pest or weed control at 500 g/ha ([6]; preemergence, 0 to 100 scale (0 no effect, 100 complete control), read-out: Plant response rating, Ryegrass, Italian): 0%
pest or weed control at 125 g/ha ([6]; Preemergence, 0 to 100 scale (0 no effect, 100 complete control), read-out: Plant response rating, Ryegrass, Italian): 0%

Cc1cc([C@H]2CNC(=O)[C@@H]2C(=O)Nc2ccccc2F)ccc1F [Compound 717]
pest or weed control at 125 g/ha [1, 7]: 90%
pest or weed control at 500 g/ha [1, 13]: 90%
pest or weed control at 125 g/ha [2, 8]: 0%
pest or weed control at 500 g/ha [2, 14]: 40%
pest or weed control at 125 g/ha [3, 9]: 80%
pest or weed control at 500 g/ha [3, 15]: 90%
pest or weed control at 125 g/ha [4, 10]: 0%
pest or weed control at 500 g/ha [4, 16]: 60%
pest or weed control at 125 g/ha [5, 11]: 0%
pest or weed control at 500 g/ha [5, 17]: 30%
pest or weed control at 125 g/ha [6, 12]: 0%
pest or weed control at 500 g/ha [6, 18]: 30%

Cc1cc([C@H]2CNC(=O)[C@@H]2C(=O)Nc2ccc(F)cc2F)ccc1F [Compound 718]
pest or weed control at 125 g/ha [1, 7]: 90%
pest or weed control at 500 g/ha [1, 13]: 90%
pest or weed control at 125 g/ha [2, 8]: 0%
pest or weed control at 500 g/ha [2, 14]: 40%
pest or weed control at 125 g/ha [3, 9]: 70%
pest or weed control at 500 g/ha [3, 15]: 90%
pest or weed control at 125 g/ha [4, 10]: 0%
pest or weed control at 500 g/ha [4, 16]: 60%
pest or weed control at 125 g/ha [5, 11]: 0%
pest or weed control at 500 g/ha [5, 17]: 0%
pest or weed control at 125 g/ha [6, 12]: 30%
pest or weed control at 500 g/ha [6, 18]: 30%

Cc1cc([C@H]2CN(C)C(=O)[C@@H]2C(=O)Nc2ccc(F)c(F)c2F)ccc1F [Compound 719]
pest or weed control at 125 g/ha [1, 7]: 90%
pest or weed control at 500 g/ha [1, 13]: 90%
pest or weed control at 125 g/ha [2, 8]: 20%
pest or weed control at 500 g/ha [2, 14]: 70%
pest or weed control at 125 g/ha [3, 9]: 90%
pest or weed control at 500 g/ha [3, 15]: 90%
pest or weed control at 125 g/ha [4, 10]: 70%
pest or weed control at 500 g/ha [4, 16]: 80%
pest or weed control at 125 g/ha [5, 11]: 50%
pest or weed control at 500 g/ha [5, 17]: 90%
pest or weed control at 125 g/ha [6, 12]: 70%
pest or weed control at 500 g/ha [6, 18]: 90%

Cc1ccc([C@H]2CNC(=O)[C@@H]2C(=O)Nc2cccc(F)c2F)c(F)c1 [Compound 720]
pest or weed control at 125 g/ha [1, 7]: 90%
pest or weed control at 500 g/ha [1, 13]: 100%
pest or weed control at 125 g/ha [2, 8]: 0%
pest or weed control at 500 g/ha [2, 14]: 80%
pest or weed control at 125 g/ha [3, 9]: 60%
pest or weed control at 500 g/ha [3, 15]: 90%
pest or weed control at 125 g/ha [4, 10]: 20%
pest or weed control at 500 g/ha [4, 16]: 70%
pest or weed control at 125 g/ha [5, 11]: 0%
pest or weed control at 500 g/ha [5, 17]: 0%
pest or weed control at 125 g/ha [6, 12]: 0%
pest or weed control at 500 g/ha [6, 18]: 20%

C=CCN1C[C@H](c2ccc(OC)c(F)c2)[C@@H](C(=O)Nc2cccc(F)c2F)C1=O [Compound 722]
pest or weed control at 125 g/ha [1, 7]: 20%
pest or weed control at 500 g/ha [1, 13]: 80%
pest or weed control at 125 g/ha [2, 8]: 0%
pest or weed control at 500 g/ha [2, 14]: 0%
pest or weed control at 125 g/ha [3, 9]: 50%
pest or weed control at 500 g/ha [3, 15]: 80%
pest or weed control at 125 g/ha [4, 10]: 0%
pest or weed control at 500 g/ha [4, 16]: 0%
pest or weed control at 125 g/ha [5, 11]: 0%
pest or weed control at 500 g/ha [5, 17]: 0%
pest or weed control at 125 g/ha [6, 12]: 0%
pest or weed control at 500 g/ha [6, 18]: 0%

C=CCN1C[C@H](c2ccc(OC)c(F)c2)[C@@H](C(=O)Nc2ccccc2S(C)(=O)=O)C1=O [Compound 724]
pest or weed control at 125 g/ha [1, 7]: 0%
pest or weed control at 500 g/ha [1, 13]: 0%
pest or weed control at 125 g/ha [2, 8]: 0%
pest or weed control at 500 g/ha [2, 14]: 0%
pest or weed control at 125 g/ha [3, 9]: 0%
pest or weed control at 500 g/ha [3, 15]: 0%
pest or weed control at 125 g/ha [4, 10]: 0%
pest or weed control at 500 g/ha [4, 16]: 0%
pest or weed control at 125 g/ha [5, 11]: 0%
pest or weed control at 500 g/ha [5, 17]: 0%
pest or weed control at 125 g/ha [6, 12]: 0%
pest or weed control at 500 g/ha [6, 18]: 0%

Cc1cc([C@H]2CNC(=O)[C@@H]2C(=O)Nc2ccc(F)cc2F)ccc1Br [Compound 725]
pest or weed control at 125 g/ha [1, 7]: 90%
pest or weed control at 500 g/ha [1, 13]: 90%
pest or weed control at 125 g/ha [2, 8]: 0%
pest or weed control at 500 g/ha [2, 14]: 0%
pest or weed control at 125 g/ha [3, 9]: 90%
pest or weed control at 500 g/ha [3, 15]: 90%
pest or weed control at 125 g/ha [4, 10]: 0%
pest or weed control at 500 g/ha [4, 16]: 50%
pest or weed control at 125 g/ha [5, 11]: 0%
pest or weed control at 500 g/ha [5, 17]: 0%
pest or weed control at 125 g/ha [6, 12]: 0%
pest or weed control at 500 g/ha [6, 18]: 20%

Cc1ccc([C@H]2CNC(=O)[C@@H]2C(=O)Nc2cccc(F)c2F)s1 [Compound 729]
pest or weed control at 125 g/ha [1, 7]: 0%
pest or weed control at 500 g/ha [1, 13]: 0%
pest or weed control at 125 g/ha [2, 8]: 0%
pest or weed control at 500 g/ha [2, 14]: 0%
pest or weed control at 125 g/ha [3, 9]: 0%
pest or weed control at 500 g/ha [3, 15]: 0%
pest or weed control at 125 g/ha [4, 10]: 0%
pest or weed control at 500 g/ha [4, 16]: 0%
pest or weed control at 125 g/ha [5, 11]: 0%
pest or weed control at 500 g/ha [5, 17]: 0%
pest or weed control at 125 g/ha [6, 12]: 0%
pest or weed control at 500 g/ha [6, 18]: 0%
